Test results as given in PubChem BioAssay AID248 (DTP/NCI, 2004).
“And” between values parts separate entries of the source, which are not always exact repeats. Equal entries are not always repeated. Inconclusive results and toxic doses are left out.

Test system: L1210 leukemia ip in BDF1 mice, survival T/C
Experiment: NCI In Vivo Anticancer Drug Screen. Data for tumor model L1210 Leukemia (intraperitoneal) in B6D2F1 (BDF1) mice
Conditions: vehicle: saline, higher = longer survival
Procedure, shortened: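 Survival endpoint. Drug-treated group vs vehicle group, expressed as T divided by C. Tumor passaged by transplantation.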

Compound: N[C@H](C(=O)O)[C@@H]1CC(Cl)=NO1
- T/C (endpoint: mean survival time, dose: 0.1 mg/kg/injection, schedule: Q03HX024 (ip)): 120 % of control
- T/C (endpoint: mean survival time, dose: 0.39 mg/kg/injection, schedule: Q01DX009 (sc)): 119 % of control and 121 % of control
- T/C (endpoint: mean survival time, dose: 0.39 mg/kg/injection, schedule: Q03HX024 (ip)): 194 % of control
- T/C (endpoint: mean survival time, dose: 0.78 mg/kg/injection, schedule: Q01DX009 (oral)): 123 % of control
- T/C (endpoint: mean survival time, dose: 1.0 mg/kg/injection, schedule: Q01DX009 (ip)): 123 % of control and 124 % of control
- T/C (endpoint: mean survival time, dose: 1.56 mg/kg/injection, schedule: Q01DX009 (oral)): 151 % of control
- T/C (endpoint: mean survival time, dose: 3.12 mg/kg/injection, schedule: Q01DX001 (ip)): 107 % of control
- T/C (endpoint: mean survival time, dose: 3.12 mg/kg/injection, schedule: Q04DX003 (ip)): 107 % of control
- T/C (endpoint: mean survival time, dose: 4.0 mg/kg/injection, schedule: Q01DX009 (ip)): 152 % of control
- T/C (endpoint: mean survival time, dose: 6.2 mg/kg/injection, schedule: Q04DX003 (ip)): 115 % of control and 116 % of control
- T/C (endpoint: mean survival time, dose: 6.25 mg/kg/injection, schedule: Q01DX001 (ip)): 112 % of control
- T/C (endpoint: mean survival time, dose: 6.25 mg/kg/injection, schedule: Q01DX009 (oral)): 107 % of control and 110 % of control
- T/C (endpoint: mean survival time, dose: 6.25 mg/kg/injection, schedule: Q01DX009 (sc)): 105 % of control
- T/C (endpoint: mean survival time, dose: 12.5 mg/kg/injection, schedule: Q01DX001 (ip)): 119 % of control
- T/C (endpoint: mean survival time, dose: 12.5 mg/kg/injection, schedule: Q01DX009 (sc)): 101 % of control
- T/C (endpoint: mean survival time, dose: 12.5 mg/kg/injection, schedule: Q04DX003 (ip)): 109 % of control and 110 % of control
- T/C (endpoint: mean survival time, dose: 16.0 mg/kg/injection, schedule: Q01DX009 (ip)): 102 % of control
- T/C (endpoint: mean survival time, dose: 25.0 mg/kg/injection, schedule: Q01DX009 (sc)): 94 % of control and 95 % of control
- T/C (endpoint: mean survival time, dose: 25.0 mg/kg/injection, schedule: Q03HX008 (ip)): 153 % of control
- T/C (endpoint: mean survival time, dose: 25.0 mg/kg/injection, schedule: Q04DX003 (ip)): 116 % of control and 120 % of control
- T/C (endpoint: mean survival time, dose: 32.0 mg/kg/injection, schedule: Q01DX009 (ip)): 104 % of control and 115 % of control
- T/C (endpoint: mean survival time, dose: 50.0 mg/kg/injection, schedule: Q04DX003 (ip)): 120 % of control and 123 % of control
- T/C (endpoint: median survival time, dose: 0.25 mg/kg/injection, schedule: Q03HX024 (ip)): 117 % of control
- T/C (endpoint: median survival time, dose: 0.39 mg/kg/injection, schedule: Q03HX024 (ip)): 175 % of control
- T/C (endpoint: median survival time, dose: 0.5 mg/kg/injection, schedule: Q03HX016 (ip)): 124 % of control
- T/C (endpoint: median survival time, dose: 0.78 mg/kg/injection, schedule: Q01DX009 (ip)): 153 % of control
- T/C (endpoint: median survival time, dose: 0.78 mg/kg/injection, schedule: Q03HX016 (ip)): 150 % of control
- T/C (endpoint: median survival time, dose: 0.78 mg/kg/injection, schedule: Q03HX024 (ip)): 191 % of control
- T/C (endpoint: median survival time, dose: 1.0 mg/kg/injection, schedule: Q01DX009 (sc)): 122 % of control
- T/C (endpoint: median survival time, dose: 1.0 mg/kg/injection, schedule: Q03HX008 (ip)): 120 % of control
- T/C (endpoint: median survival time, dose: 1.0 mg/kg/injection, schedule: Q03HX024 (ip)): 159 % of control
- T/C (endpoint: median survival time, dose: 1.56 mg/kg/injection, schedule: Q03HX016 (ip)): 159 % of control
- T/C (endpoint: median survival time, dose: 2.0 mg/kg/injection, schedule: Q03HX016 (ip)): 150 % of control
- T/C (endpoint: median survival time, dose: 2.0 mg/kg/injection, schedule: Q03HX024 (ip)): 181 % of control
- T/C (endpoint: median survival time, dose: 2.0 mg/kg/injection, schedule: Q04DX003 (ip)): 106 % of control
- T/C (endpoint: median survival time, dose: 3.12 mg/kg/injection, schedule: Q01DX009 (ip)): 94 % of control
- T/C (endpoint: median survival time, dose: 3.12 mg/kg/injection, schedule: Q03HX008 (ip)): 154 % of control
- T/C (endpoint: median survival time, dose: 3.12 mg/kg/injection, schedule: Q03HX016 (ip)): 166 % of control
- T/C (endpoint: median survival time, dose: 4.0 mg/kg/injection, schedule: Q01DX009 (ip)): 158 % of control
- T/C (endpoint: median survival time, dose: 4.0 mg/kg/injection, schedule: Q03HX016 (ip)): 153 % of control
- T/C (endpoint: median survival time, dose: 4.0 mg/kg/injection, schedule: Q04DX003 (ip)): 110 % of control
- T/C (endpoint: median survival time, dose: 4.0 mg/kg/injection, schedule: Q08DX002 (ip)): 104 % of control
- T/C (endpoint: median survival time, dose: 6.25 mg/kg/injection, schedule: Q03HX016 (ip)): 182 % of control
- T/C (endpoint: median survival time, dose: 8.0 mg/kg/injection, schedule: Q01DX001 (ip)): 100 % of control
- T/C (endpoint: median survival time, dose: 8.0 mg/kg/injection, schedule: Q01DX001 (sc)): 114 % of control
- T/C (endpoint: median survival time, dose: 8.0 mg/kg/injection, schedule: Q01DX009 (ip)): 165 % of control
- T/C (endpoint: median survival time, dose: 8.0 mg/kg/injection, schedule: Q01DX009 (sc)): 162 % of control
- T/C (endpoint: median survival time, dose: 8.0 mg/kg/injection, schedule: Q03HX016 (ip)): 162 % of control
- T/C (endpoint: median survival time, dose: 8.0 mg/kg/injection, schedule: Q08DX002 (ip)): 114 % of control
- T/C (endpoint: median survival time, dose: 12.5 mg/kg/injection, schedule: Q01DX001 (ip)): 115 % of control
- T/C (endpoint: median survival time, dose: 12.5 mg/kg/injection, schedule: Q03HX016 (ip)): 171 % of control
- T/C (endpoint: median survival time, dose: 12.5 mg/kg/injection, schedule: Q03HX024 (ip)): 93 % of control
- T/C (endpoint: median survival time, dose: 12.5 mg/kg/injection, schedule: Q04DX003 (ip)): 153 % of control
- T/C (endpoint: median survival time, dose: 12.5 mg/kg/injection, schedule: Q08DX002 (ip)): 151 % of control
- T/C (endpoint: median survival time, dose: 16.0 mg/kg/injection, schedule: Q01DX001 (ip)): 99 % of control
- T/C (endpoint: median survival time, dose: 16.0 mg/kg/injection, schedule: Q01DX001 (sc)): 105 % of control
- T/C (endpoint: median survival time, dose: 16.0 mg/kg/injection, schedule: Q01DX009 (oral)): 94 % of control
- T/C (endpoint: median survival time, dose: 16.0 mg/kg/injection, schedule: Q01DX009 (sc)): 109 % of control
- T/C (endpoint: median survival time, dose: 16.0 mg/kg/injection, schedule: Q03HX016 (ip)): 155 % of control
- T/C (endpoint: median survival time, dose: 16.0 mg/kg/injection, schedule: Q04DX003 (ip)): 120 % of control
- T/C (endpoint: median survival time, dose: 16.0 mg/kg/injection, schedule: Q08DX002 (ip)): 106 % of control
- T/C (endpoint: median survival time, dose: 25.0 mg/kg/injection, schedule: Q01DX001 (ip)): 108 % of control
- T/C (endpoint: median survival time, dose: 25.0 mg/kg/injection, schedule: Q04DX003 (ip)): 154 % of control
- T/C (endpoint: median survival time, dose: 32.0 mg/kg/injection, schedule: Q01DX001 (ip)): 113 % of control
- T/C (endpoint: median survival time, dose: 32.0 mg/kg/injection, schedule: Q01DX001 (sc)): 107 % of control
- T/C (endpoint: median survival time, dose: 32.0 mg/kg/injection, schedule: Q01DX009 (ip)): 103 % of control
- T/C (endpoint: median survival time, dose: 32.0 mg/kg/injection, schedule: Q08DX002 (ip)): 114 % of control
- T/C (endpoint: median survival time, dose: 50.0 mg/kg/injection, schedule: Q01DX001 (ip)): 122 % of control
- T/C (endpoint: median survival time, dose: 50.0 mg/kg/injection, schedule: Q04DX003 (ip)): 188 % of control
- T/C (endpoint: median survival time, dose: 50.0 mg/kg/injection, schedule: Q08DX002 (ip)): 151 % of control
- T/C (endpoint: median survival time, dose: 64.0 mg/kg/injection, schedule: Q01DX001 (ip)): 113 % of control
- T/C (endpoint: median survival time, dose: 64.0 mg/kg/injection, schedule: Q01DX001 (oral)): 112 % of control and 114 % of control
- T/C (endpoint: median survival time, dose: 64.0 mg/kg/injection, schedule: Q01DX001 (sc)): 116 % of control
- T/C (endpoint: median survival time, dose: 64.0 mg/kg/injection, schedule: Q08DX002 (ip)): 109 % of control
- T/C (endpoint: median survival time, dose: 128.0 mg/kg/injection, schedule: Q01DX001 (ip)): 116 % of control
- T/C (endpoint: median survival time, dose: 128.0 mg/kg/injection, schedule: Q01DX001 (oral)): 119 % of control
- T/C (endpoint: median survival time, dose: 128.0 mg/kg/injection, schedule: Q01DX001 (sc)): 115 % of control
- T/C (endpoint: median survival time, dose: 128.0 mg/kg/injection, schedule: Q08DX002 (ip)): 119 % of control
- T/C (endpoint: median survival time, dose: 256.0 mg/kg/injection, schedule: Q01DX001 (ip)): 110 % of control
- T/C (endpoint: median survival time, dose: 256.0 mg/kg/injection, schedule: Q01DX001 (oral)): 116 % of control
- T/C (endpoint: median survival time, dose: 256.0 mg/kg/injection, schedule: Q01DX001 (sc)): 120 % of control
- T/C (endpoint: median survival time, dose: 400.0 mg/kg/injection, schedule: Q01DX001 (ip)): 93 % of control
- T/C (endpoint: median survival time, dose: 400.0 mg/kg/injection, schedule: Q08DX002 (ip)): 116 % of control
